Measured values published in patent US7892789B2, “Method of increasing cell permeability to trehalose by recombinantly producing a trehalose transporter” (priority 2007, dated 2011).
Like-named read-outs stand apart in the source and are kept apart here.

Legend:
hGLUT1 = molecular target: T1, hGLUT1 (Homo sapiens, UniProt P11166); experiment: Sugar uptake assay in Xenopus oocytes expressing hGLUT1; type: cell-based; details: 105 mM of sugar, 3 h
T1 construct: ORF of hGLUT1 cDNA was obtained by digestion of pSPMM1 with BamH I; expressed in transfected cells; host or cells: Xenopus laevis oocytes injected with cRNA
T1 sequence (P11166 1-492): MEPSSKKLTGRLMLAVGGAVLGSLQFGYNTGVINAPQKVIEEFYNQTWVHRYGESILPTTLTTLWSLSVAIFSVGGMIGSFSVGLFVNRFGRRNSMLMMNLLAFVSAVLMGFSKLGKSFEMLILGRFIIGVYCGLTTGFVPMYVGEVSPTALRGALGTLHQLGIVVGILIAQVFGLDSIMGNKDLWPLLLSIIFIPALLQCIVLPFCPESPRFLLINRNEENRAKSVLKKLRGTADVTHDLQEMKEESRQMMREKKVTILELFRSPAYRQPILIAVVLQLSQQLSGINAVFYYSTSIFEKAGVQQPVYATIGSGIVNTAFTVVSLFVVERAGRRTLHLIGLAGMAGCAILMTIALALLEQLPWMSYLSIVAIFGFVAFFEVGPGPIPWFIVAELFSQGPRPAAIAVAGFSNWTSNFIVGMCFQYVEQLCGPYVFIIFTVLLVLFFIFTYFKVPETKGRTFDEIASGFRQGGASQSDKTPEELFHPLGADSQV
Text: (§1) The capped RNA (cRNA) expression vector pTRET1-XbG-ev1 series was constructed as follows: ORF of either Tret1, DmTret1, AmTret1, AgTret1 or BmTret1 cDNA was amplified with PCR using specific primers containing Bgl II site at the 5′-end on each primer, respectively. The PCR products were digested with the restriction enzymes, and cloned into the site of Bgl II in pXbG-ev1 (Preston, G. M., et al. (1992) Science 256, 385-387). ORF of hGLUT1 cDNA was obtained by digestion of pSPMM1 with BamH I, and then subcloned into the site of Bgl II in pXbG-2. Template DNAs for cRNA synthesis were amplified from the corresponding cRNA expression vectors with a high fidelity DNA polymerase, KOD—Plus—, (TOYOBO). The cRNAs were synthesized with mMESSAGE mMACHINE T7 Kit (Ambion), and then purified with RNeasy MiniElute Cleanup kit (Qiagen).
(§2) All uptake assays for zero-trans trehalose and/or other sugars were performed using Xenopus oocytes expressing TRET1 at 15° C. in MBS containing appropriate concentrations of sugars. Sugar concentrations were determined using HPLC (Watanabe, M., et al. (2002) J Exp Biol 205, 2799-2802). All assays were carried out in triplicate.
(§3) Xenopus oocytes expressing either TRET1 or hGLUT1 were incubated in 105 mM of various sugars for 3 h. Tre: trehalose; Mal: maltose; Suc: sucrose; Lac: lactose; MAG: methyl-a-glucopyranoside; and 2-DOG: 2-deoxy-glucose (FIG. 3B).

TRET1 = molecular target: T2, TRET1 (Polypedilum vanderplanki, UniProt A5LGM7); type: cell-based; details: for effect on the transport activity of TRET1: 105 mM trehalose, various concentrations of ionophore/uncoupler
T2 construct: ORF of either Tret1, DmTret1, AmTret1, AgTret1 or BmTret1 cDNA was amplified with PCR; expressed in transfected cells; host or cells: Xenopus laevis oocytes injected with cRNA
T2 sequence (A5LGM7 1-504): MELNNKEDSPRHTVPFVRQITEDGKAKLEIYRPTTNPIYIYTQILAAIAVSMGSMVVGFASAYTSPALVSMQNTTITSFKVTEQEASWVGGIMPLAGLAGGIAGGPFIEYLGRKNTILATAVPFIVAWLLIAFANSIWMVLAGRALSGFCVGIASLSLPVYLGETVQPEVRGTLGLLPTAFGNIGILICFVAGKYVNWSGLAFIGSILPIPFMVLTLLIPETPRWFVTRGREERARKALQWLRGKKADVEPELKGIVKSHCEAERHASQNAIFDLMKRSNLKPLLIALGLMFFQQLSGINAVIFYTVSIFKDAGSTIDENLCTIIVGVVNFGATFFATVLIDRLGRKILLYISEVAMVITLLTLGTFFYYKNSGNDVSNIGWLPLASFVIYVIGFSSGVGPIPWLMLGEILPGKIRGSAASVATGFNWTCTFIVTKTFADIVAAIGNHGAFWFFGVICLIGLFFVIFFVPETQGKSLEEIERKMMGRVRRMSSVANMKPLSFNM
Text: as §1
Stage V or VI oocytes were extirpated from X. laevis females, and digested ovarian lobes with 0.2% (w/v) collagenase, type II (Sigma-Aldrich) in Ca^2+-free modified Barth's saline (MBS; 88.0 mM NaCl, 1.0 mM KCl, 2.4 mM NaHCO3, 15.0 mM Tris-Cl, 0.82 mM MgSO4, […] penicillin and streptomycin, pH7.6) at 15° C. for 3 h. The oocytes were microinjected with 40 nl of either 1 ng/nl of the TRET1::AcGFP1 or AcGFP1 cRNA, or nuclease-free water (Invitrogen) as a negative control. In order to express TRET1, the oocytes were incubated in MBS (containing 0.41 mM CaCl2) for 3-4 days after injection at 15° C. Fluorescence images of the oocytes injected with the cRNA were observed and analyzed with a fluorescence microscope BZ-8000 (KEYENCE).
as §2, §3
In General, transporters contain two sub-classes: facilitated transporters and secondary active transporters. Activities of secondary active transporters are dependent on the electrochemical membrane potential resulting from the distribution of ions such as H^+. For example, proton-dependent MAL11/AGT1 can act only under acidic extracellular conditions (Stambuk, B. U., et al. (1996) Eur J Biochem 237, 876-881). On the other hand, facilitated transporters function independently of the electrochemical membrane potential. Xenopus oocytes expressing TRET1 were incubated in 105 mM trehalose at pH 4.2 and 7.6 for 3 h.
Xenopus oocytes expressing TRET1 were incubated in 105 mM trehalose with either control buffer (Mock; 0.1% acetone), or buffer containing various concentrations of nigericin (Na^+, K^+-ionophore), valinomycin (K^+-ionophore) or CCCP (H^+-ionophore, uncoupler) for 3 h.
In general, facilitated transporters enable their substrates to flow across membranes down concentration gradients. Xenopus oocytes expressing TRET1 were first incubated in 105 mM trehalose for 3 h, and then transferred into trehalose-free buffer and trehalose content was examined over time.
Xenopus oocytes expressing TRET1 were incubated in various concentrations of trehalose for 15 min. Uptake data were fitted to the Michaelis-Menten and Eadie-Hofstee (inset of FIG. 9) equations.

[1] = 105 mM of sugar, 3 h, Xenopus oocytes

## O=CC[C@@H](O)[C@H](O)[C@H](O)CO [2-DOG, 2-deoxy-glucose]
hGLUT1
  transport of sugar by Glut1 gene product (substrate selectivity): transported
TRET1
  transport of sugar by TRET1 (substrate selectivity): transported at a much lower rate

## N#CC(C#N)=NNc1cccc(Cl)c1 [CCCP, carbonylcyanide m-chlorophenylhydrazone]
TRET1; 3 h
  effect on the transport activity of TRET1: did not significantly affect

## COC1OC(CO)C(O)C(O)C1O (stereo not drawn) [MAG, methyl-a-glucopyranoside]
TRET1; [1]
  transport of sugar by TRET1 (substrate selectivity): transported at a much lower rate

## OC[C@H]1O[C@H](O[C@H]2[C@H](O)[C@@H](O)[C@H](O)O[C@@H]2CO)[C@H](O)[C@@H](O)[C@@H]1O [Maltose, maltose]
TRET1; [1]
  transport of sugar by TRET1 (substrate selectivity): not transported

## OC[C@H]1O[C@@H](O[C@H]2[C@H](O)[C@@H](O)C(O)O[C@@H]2CO)[C@H](O)[C@@H](O)[C@H]1O (stereo partly drawn) [lactose, 4-O-b-D-galactopyranosyl-D-glucose]
TRET1; [1]
  transport of sugar by TRET1 (substrate selectivity): not transported

## CO[C@@H]1C[C@@H](C[C@H]2CC[C@H](C)[C@H]([C@@H](C)C(=O)O)O2)O[C@]2(O[C@](C)([C@H]3CC[C@@](C)([C@@H]4O[C@@H]([C@H]5O[C@@](O)(CO)[C@H](C)C[C@@H]5C)C[C@@H]4C)O3)C[C@H]2C)[C@@H]1C [nigericin]
TRET1; 3 h
  effect on the transport activity of TRET1: did not significantly affect

## OC[C@H]1O[C@@](CO)(O[C@H]2O[C@H](CO)[C@@H](O)[C@H](O)[C@H]2O)[C@@H](O)[C@@H]1O [sucrose]
TRET1; [1]
  transport of sugar by TRET1 (substrate selectivity): not transported

## CC(C)[C@@H]1NC(=O)[C@H](C)OC(=O)[C@@H](C(C)C)NC(=O)[C@@H](C(C)C)OC(=O)[C@H](C(C)C)NC(=O)[C@H](C)OC(=O)[C@@H](C(C)C)NC(=O)[C@@H](C(C)C)OC(=O)[C@H](C(C)C)NC(=O)[C@H](C)OC(=O)[C@@H](C(C)C)NC(=O)[C@@H](C(C)C)OC1=O [valinomycin]
TRET1; 3 h
  effect on the transport activity of TRET1: did not significantly affect
